# Test results taken from ChEMBL document CHEMBL5247664, “Structure-activity relationship of BMS906024 derivatives for Cryptosporidium parvum growth inhibition” (Bioorg Med Chem Lett, 2023).
# Columns and labels:
# Type in all cases: functional, organism-based
# [1] = system: Cryptosporidium parvum; experiment: Antiparasitic activity against Cryptosporidium parvum assessed as parasitic growth inhibition measured for 24 hrs
# [2] = system: Cryptosporidium parvum; experiment: Antiparasitic activity against Cryptosporidium parvum infected in human HCT-8 cells assessed as parasitic growth inhibition measured for 48 hrs by fluorescence based microscopic analysis; conditions: for EC50: HCT-8, 48 h; for EC90: HCT-8, time 48 hrs
# [3] = system: Cryptosporidium parvum; experiment: Antiparasitic activity against Cryptosporidium parvum infected in human HCT-8 cells assessed as parasitic growth inhibition incubated for 45 mins followed by compound washout further infected in cells and measured after 48 hrs by microscopic analysis
# [4] = system: Cryptosporidium parvum; experiment: Antiparasitic activity against Cryptosporidium parvum assessed as parasitic growth inhibition
Structure (SMILES),EC50 [1] [nM],EC50 [2] [nM],EC90 [2] [nM],EC50 [3] [nM],EC50 [4] [nM]
C[C@H](NC(=O)Cc1cc(F)cc(F)c1)C(=O)N[C@H](C(=O)OC(C)(C)C)c1ccccc1,12500,–,–,–,–
CN1C(=O)[C@H](NC(=O)[C@H](CCC(F)(F)F)CC(=O)N2CCCCC2)N=C(c2ccccc2)c2cc(Cl)c(OC3COC3)cc21,–,5470,12800,–,–
CN1C(=O)[C@H](NC(=O)[C@H](CCC(F)(F)F)CC(=O)N2CCCCC2)N=C(c2ccccc2)c2ccc(OC3COC3)cc21,–,2290,4900,–,–
COc1ccc2c(c1)N(C)C(=O)[C@@H](NC(=O)[C@H](CCC(F)(F)F)CC(=O)N1CCCCC1)N=C2c1ccccc1,–,31,66,–,–
CN1C(=O)[C@@H](NC(=O)[C@H](CCC(F)(F)F)CC(=O)N2CCCCC2)N=C(c2ccccc2)c2cc(Cl)c(OC3COC3)cc21,–,320,960,–,–
CN1C(=O)[C@@H](NC(=O)[C@H](CCC(F)(F)F)CC(=O)N2CCCCC2)N=C(c2ccccc2)c2ccc(Oc3ccccc3)cc21,–,25,55,–,–
CCCNC(=O)C[C@@H](CCC(F)(F)F)C(=O)N[C@H]1N=C(c2ccccc2)c2ccc(OC3COC3)cc2N(C)C1=O,–,350,970,–,–
CCCNC(=O)C[C@H](CCC(F)(F)F)C(=O)N[C@H]1N=C(c2ccccc2)c2ccccc2N(C)C1=O,–,> 25000,> 25000,–,–
CCCNC(=O)CCC(=O)N[C@H]1N=C(c2ccccc2)c2ccccc2N(C)C1=O,–,> 25000,> 25000,–,–
CN1C(=O)[C@@H](NC(=O)[C@H](CCC(F)(F)F)CC(N)=O)N=C(c2ccccc2)c2ccccc21,–,> 25000,> 25000,–,–
CN1C(=O)[C@@H](NC(=O)[C@H](CCC(F)(F)F)CC(=O)N2CCCCC2)N=C(c2ccccc2)c2ccc(OC3COC3)cc21,–,110,210,–,–
CCN(CC)C(=O)C[C@@H](CCC(F)(F)F)C(=O)N[C@H]1N=C(c2ccccc2)c2ccccc2N(C)C1=O,–,110,310,500,–
CN1C(=O)[C@@H](NC(=O)[C@H](CCC(F)(F)F)CC(=O)N2CCCCC2)N=C(c2ccccc2)c2ccccc21,–,6.4,16,–,–
CN1C(=O)[C@@H](NC(=O)[C@H](CCC(F)(F)F)CC(=O)N2CCOCC2)N=C(c2ccccc2)c2ccccc21,–,52,100,–,–
CCCNC(=O)C(C)(C)CC(=O)N[C@H]1N=C(c2ccccc2)c2ccccc2N(C)C1=O,–,> 25000,> 25000,–,–
CCCNC(=O)C[C@@H](CCC(F)(F)F)C(=O)N[C@@H]1N=C(c2ccccc2)c2ccc(OC3COC3)cc2N(C)C1=O,–,> 25000,> 25000,–,–
CCCNC(=O)[C@@H](CCC(F)(F)F)CC(=O)N[C@H]1N=C(c2ccccc2)c2ccccc2N(C)C1=O,–,> 25000,> 25000,–,–
CCCNC(=O)C[C@@H](CCC(F)(F)F)C(=O)N[C@H]1N=C(c2ccccc2)c2ccc(OC)cc2N(C)C1=O,–,81,150,–,–
CCNC(=O)C[C@@H](CCC(F)(F)F)C(=O)N[C@H]1N=C(c2ccccc2)c2ccccc2N(C)C1=O,–,280,610,–,–
CN1C(=O)[C@H](NC(=O)[C@H](CCC(F)(F)F)CC(=O)N2CCCCC2)N=C(c2ccccc2)c2ccc(OC3CCC3)cc21,–,2520,11100,–,–
CN1C(=O)[C@@H](NC(=O)C[C@H](CCC(F)(F)F)C(N)=O)N=C(c2ccccc2)c2ccccc21,–,25000,> 25000,–,–
CCCNC(=O)CC(C)(C)C(=O)N[C@H]1N=C(c2ccccc2)c2ccccc2N(C)C1=O,–,> 25000,> 25000,–,–
CN1C(=O)[C@H](NC(=O)[C@H](CCC(F)(F)F)CC(=O)N2CCCCC2)N=C(c2ccccc2)c2ccc(Oc3ccccc3)cc21,–,1690,3610,–,–
CCC[C@H](CC(=O)N1CCCC1)C(=O)N[C@H]1N=C(c2ccccc2)c2ccccc2N(C)C1=O,–,110,230,–,–
CCCN(CCC)C(=O)C[C@@H](CCC(F)(F)F)C(=O)N[C@H]1N=C(c2ccccc2)c2ccccc2N(C)C1=O,–,1450,2790,–,–
CN1C(=O)[C@@H](NC(=O)[C@H](CCC(F)(F)F)CC(=O)N2CCCCC2)N=C(c2ccccc2)c2ccc(OC3CCC3)cc21,–,77,160,–,–
CCCNC(=O)C[C@@H](CCC(F)(F)F)C(=O)N[C@H]1N=C(c2ccccc2)c2ccccc2N(C)C1=O,–,18,56,–,–
CN1C(=O)[C@@H](NC(=O)[C@H](CCC(F)(F)F)CC(=O)OC(C)(C)C)N=C(c2ccccc2)c2ccccc21,–,550,1120,–,–
CN1C(=O)[C@@H](NC(=O)[C@H](CCC(F)(F)F)[C@H](CCC(F)(F)F)C(N)=O)N=C(c2ccccc2)c2ccccc21 [OSUGACESTAT],–,1.8,2.3,–,1.8
CC(C)[C@H](O)C(=O)N[C@@H](C)C(=O)N[C@@H]1C(=O)N(C)CCc2ccccc21 [SEMAGACESTAT],4200,–,–,–,–
